The subject of one series is HIV-1 (wildtype IIIB). Nature of the series: microbe, parasite or virus in culture. The format is cell-based. The following applies: dose achieving 50% protection of HIV-1 (IIIB) infected MT-4 cells, MTT, OD 540 nm. As for the experimental part: (§1) A rapid, sensitive and automated assay procedure was used for the in vitro evaluation of anti-HIV agents. An HIV-1 (wildtype IIIB) transformed T4-cell line, MT-4, which was previously shown (Koyanagi et al., Int. J Cancer, 36, 445-451, 1985) to be highly susceptible to and permissive for HIV infection, served as the target cell line. Inhibition of the HIV-induced cytopathic effect was used as the end point. […] The percent protection achieved by the compound in HIV-infected cells was calculated by the following formula: [formula]
(§2) whereby (ODT)HIV is the optical density measured with a given concentration of the test compound in HIV-infected cells; (ODC)HIV is the optical density measured for the control untreated HIV-infected cells; (ODC)MOCK is the optical density measured for the control untreated mock-infected cells; all optical density values were determined at 540 nm. […] The ratio of CC50 to IC50 was defined as the selectivity index (SI).

A short description of series [1]: Cytotoxicity in mock-infected MT-4 cells (MTT). Conditions: human, mock-infected MT-4 cells. As for the experimental part: as §1, §2
In the next series the test system is MT-4. Put plainly: Cytotoxicity in mock-infected MT-4 cells (MTT). How it is done:
as §1, §2

Setting [2] is: Human immunodeficiency virus 1, MT4.

As usually defined, the IC50 is the concentration needed to halve the response being measured. Low readings indicate greater potency in that assay, high ones weaker potency in that assay. For orientation: CC50 means the concentration giving 50% cytotoxicity.

In turn, `CCc1cccc(C)c1Nc1nc(N)nc(Nc2ccc(C#N)cc2)n1` [Compound 16, 4-[[4-amino-6-[(2-ethyl-6-methylphenyl)amino]-1,3,5-triazin-2-yl]amino]benzonitrile] returned an IC50 with HIV-1 (wildtype IIIB) (setting [2]) of 6 nM. Moreover, in series [1], half-maximal cytotoxicity (CC50) was put at 8100 nM.

`N#Cc1ccc(Nc2nc(N)nc(Oc3c(Br)cc(Br)cc3Br)n2)cc1` [Compound 40, 4-[[4-amino-6-(2,4,6-tribromophenoxy)-1,3,5-triazin-2-yl]amino]benzonitrile] returned an IC50 in the series on HIV-1 (wildtype IIIB) (setting [2]) of 5 nM. Moreover, the CC50 in series [1] was more than 10000 nM.

In turn, `Cc1cc(C)c(Nc2nc(NO)nc(Nc3ccc(C#N)cc3)n2)c(C)c1` [Compound 11, 4-[[4-(hydroxyamino)-6-[(2,4,6-trimethylphenyl)amino]-1,3,5-triazin-2-yl]amino]-benzonitrile] showed an IC50 in the series with HIV-1 (wildtype IIIB) (setting [2]) of 1 nM. This compound also registered a CC50 in series [1] of 6300 nM.

In turn, `CC(=O)c1cc(C)c(Oc2nc(N)nc(Nc3ccc(C#N)cc3)n2)c(C)c1` [Compound 35, 4-[[4-(4-acetyl-2,6-dimethylphenoxy)-6-amino-1,3,5-triazin-2-yl]amino]benzonitrile] displayed an IC50 in the series with HIV-1 (wildtype IIIB) (setting [2]) of 1 nM. Also, it took 32100 nM to reach half-maximal cytotoxicity in series [1] (CC50).

In the series on HIV-1 (wildtype IIIB) (setting [2]), `N#Cc1ccc(Nc2nc(N)nc(Sc3ccc(Cl)cc3Cl)n2)cc1` [Compound 54, 4-[[4-amino-6-[(2,4-dichlorophenyl)thio]-1,3,5-triazin-2-yl]amino]benzonitrile] showed an IC50 of 4 nM. Besides, half-maximal cytotoxicity in series [1] (CC50) was put at 57300 nM.

In the series on HIV-1 (wildtype IIIB) (setting [2]), `CC(C)c1cc(Br)c(Nc2nc(N)nc(Nc3ccc(C#N)cc3)n2)c(Br)c1` [Compound 77, 4-[[4-amino-6-[[2,6-dibromo-4-(1-methylethyl)phenyl]amino]-1,3,5-triazin-2-yl]-amino]benzonitrile] showed an IC50 of 3 nM. This compound also gave a CC50 in series [1] of 47000 nM.

In turn, `N#Cc1ccc(Nc2nc(N)nc(Oc3cccc4[nH]ccc34)n2)cc1` [Compound 83] gave an IC50 in the series with HIV-1 (wildtype IIIB) (setting [2]) of 473 nM. The same compound came in with a CC50 in series [1] of 59600 nM.

Consider `Cc1cc(Br)cc(Cl)c1Oc1nc(N)nc(Nc2ccc(C#N)cc2)n1` [Compound 33, 4-[[4-amino-6-(4-bromo-2-chloro-6-methylphenoxy)-1,3,5-triazin-2-yl]amino]benzonitrile], for which the IC50 in the series on HIV-1 (wildtype IIIB) (setting [2]) is 2 nM. Also, the CC50 in series [1] was more than 10000 nM.

On to `Cc1cc(C)c(Nc2nc(N)nc(Nc3ccc(C#N)cc3)n2)c(Cl)c1` [Compound 65, 4-[[4-amino-6-[(2-chloro-4,6-dimethylphenyl)amino]-1,3,5-triazin-2-yl]amino]-benzonitrile], for which the IC50 in the series with HIV-1 (wildtype IIIB) (setting [2]) turned out to be 1 nM. The compound also gave a CC50 in series [1] of 48500 nM.

With `Cc1cccc(C)c1Nc1nc(NO)nc(Nc2ccc(C#N)cc2)n1` [Compound 5], inhibition in the series on HIV-1 (wildtype IIIB) was half-maximal at 2 nM (IC50). The same compound registered a CC50 in the series with MT-4 of 7800 nM.

On to `COc1cc(C#N)ccc1Oc1nc(N)nc(Nc2ccc(C#N)cc2)n1` [Compound 47], for which the half-inhibitory concentration (IC50) in the series on HIV-1 (wildtype IIIB) is 75 nM. In the series with MT-4, this compound gave a CC50 of more than 100000 nM.

Consider `N#Cc1ccc(Nc2nc(N)nc(Nc3c(Cl)cc(Cl)cc3C(F)(F)F)n2)cc1` [Compound 71, 4-[[4-amino-6-[[2,4-dichloro-6-(trifluoromethyl)phenyl]amino]-1,3,5-triazin-2-yl]-amino]benzonitrile], for which the IC50 in the series on HIV-1 (wildtype IIIB) (setting [2]) was 10 nM. Further, the CC50 in series [1] came out at 8200 nM.

In the series on HIV-1 (wildtype IIIB) (setting [2]), `N#Cc1ccc(Nc2nc(N)nc(Sc3c(Cl)cccc3Cl)n2)cc1` [Compound 19, 4-[[4-amino-6-[(2,6-dichlorophenyl)thio]-1,3,5-triazin-2-yl]amino]benzonitrile] had an IC50 of 4 nM. In series [1], the CC50 was found to be 40600 nM.

For `Cc1cc(Br)cc(Cl)c1Nc1nc(N)nc(Nc2ccc(C#N)cc2)n1` [Compound 63, 4-[[4-amino-6-[(4-bromo-2-chloro-6-methylphenyl)amino]-1,3,5-triazin-2-yl]amino]-benzonitrile], the IC50 in the series with HIV-1 (wildtype IIIB) (setting [2]) stood at 3 nM. For the same compound, in series [1], it took 48000 nM to reach half-maximal cytotoxicity (CC50).

For the compound `Cc1cccc(Cl)c1Nc1nc(N)nc(Nc2ccc(C#N)cc2)n1` [Compound 7, 4-[[4-amino-6-[(2-chloro-6-methylphenyl)amino]-1,3,5-triazin-2-yl]amino]benzonitrile], in the series on HIV-1 (wildtype IIIB) (setting [2]), half-maximal inhibition (IC50) required 5 nM. In series [1], the 50% cytotoxic concentration (CC50) worked out at 49900 nM.

For `N#Cc1ccc(Nc2nc(N)nc(Sc3ccc(F)cc3F)n2)cc1` [Compound 57], in the series with HIV-1 (wildtype IIIB), 15 nM corresponded to half-maximal inhibition (IC50). Moreover, the CC50 with MT-4 was more than 100000 nM.

In the case of `Cc1cc(N)cc(C)c1Oc1nc(N)nc(Nc2ccc(C#N)cc2)n1` [Compound 78], in the series on HIV-1 (wildtype IIIB), the IC50 was found to be 7830 nM. Besides, in the series on MT-4, the CC50 is 47000 nM.

With `CC(=O)c1cc(C)c2c(c1Oc1nc(N)nc(Nc3ccc(C#N)cc3)n1)CCC2` [Compound 84, 4-[[4-[(5-acetyl-2,3-dihydro-7-methyl-1H-inden-4-yl)oxy]-6-amino-1,3,5-triazin-2-yl]amino]benzonitrile], in the series on HIV-1 (wildtype IIIB) (setting [2]), the IC50 amounted to 1 nM. Further, in series [1], half-maximal cytotoxicity (CC50) was put at 54100 nM.

In turn, `COC(=O)c1cc(OC)c(OC)c(OC)c1Nc1nc(N)nc(Nc2ccc(C#N)cc2)n1` [Compound 82] displayed an IC50 in the series on HIV-1 (wildtype IIIB) of 1490 nM. The same compound showed a CC50 in the series on MT-4 of 99600 nM.

In the series with HIV-1 (wildtype IIIB) (setting [2]), `N#Cc1ccc(Nc2nc(NO)nc(Nc3c(Cl)cc(Cl)cc3Cl)n2)cc1` [Compound 23, 4-[[4-(hydroxyamino)-6-[(2,4,6-trichlorophenyl)amino]-1,3,5-triazin-2-yl]amino]-benzonitrile] came in with an IC50 of 1 nM. In series [1], this compound displayed a CC50 of 7600 nM.

`Cc1ccc(C)c(Oc2nc(N)nc(Nc3ccc(C#N)cc3)n2)c1` [Compound 2, 4-[[4-amino-6-(2,5-dimethylphenoxy)-1,3,5-triazin-2-yl]amino]benzonitrile] returned an IC50 in the series with HIV-1 (wildtype IIIB) (setting [2]) of 3 nM. Further, in series [1], the CC50 came to 34900 nM.

Compound `COc1cc(OC)c(Nc2nc(N)nc(Nc3ccc(C#N)cc3)n2)c(OC)c1` [Compound 68] gave an IC50 with HIV-1 (wildtype IIIB) of 15 nM. In addition, the CC50 in the series with MT-4 was determined as 63900 nM.

For `Cc1cc([N+](=O)[O-])cc(C)c1Oc1nc(N)nc(Nc2ccc(C#N)cc2)n1` [Compound 41, 4-[[4-amino-6-(4-nitro-2,6-dimethylphenoxy)-1,3,5-triazin-2-yl]amino]benzonitrile], in the series on HIV-1 (wildtype IIIB) (setting [2]), 2 nM corresponded to half-maximal inhibition (IC50). This compound also registered a CC50 in series [1] of 12200 nM.

Compound `COc1cccc(OC)c1Oc1nc(N)nc(Nc2ccc(C#N)cc2)n1` [Compound 46] yielded an IC50 with HIV-1 (wildtype IIIB) of 31 nM. In the series on MT-4, this compound showed a CC50 of more than 100000 nM.

Take `CC(C)c1cc(Br)c(Nc2nc(Nc3ccc(C#N)cc3)nc(Nc3ccc(C#N)cc3)n2)c(Br)c1` [Compound 75]: in the series with HIV-1 (wildtype IIIB), the IC50 was determined as 378 nM. In addition, in the series on MT-4, the midpoint of cytotoxicity, the CC50, lay at 37800 nM.

For `N#Cc1ccc(Nc2nc(N)nc(Sc3ccc(F)cc3Cl)n2)cc1` [Compound 55], in the series with HIV-1 (wildtype IIIB), 4 nM corresponded to half-maximal inhibition (IC50). In the series on MT-4, this compound registered a CC50 of more than 99900 nM.

The record behind these values is US6774235B2, “Trisubstituted 1,3,5-triazine derivatives” (Janssen Pharmaceutica N.V., priority 1998, dated 2004).
